From patent US6358885B1, “Substituted phenylheterocyclic herbicides” (Mississippi State University, priority 1992, dated 2002)

Assays:
barley [1] = assay: Test B preemergence/postemergence greenhouse plant response rating 0 to 10; type: in vivo, Hordeum vulgare; conditions: 0 to 10 scale
Procedure, shortened: (§1)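 Both application timings were run together: seeds got compound preemergence, and established seedlings (two to eighteen cm) got it postemergence. Non-phytotoxic solvent carried the chemical. Ratings are visual, versus controls, at twelve to sixteen days.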

bedstraw = assay: as above; type: in vivo, Galium aparine; conditions: 0 to 10 scale
Procedure, shortened: as §1

chickweed [2] = assay: as above; type: in vivo, Stellaria media; conditions: 0 to 10 scale
Procedure, shortened: as §1

cocklebur = assay: as above; type: in vivo, Xanthium pensylvanicum; conditions: 0 to 10 scale
Procedure, shortened: as §1

morningglory = assay: as above; type: in vivo, Ipomoea hederacea; conditions: 0 to 10 scale
Procedure, shortened: as §1

sorghum = assay: as above; type: in vivo, Sorghum bicolor; conditions: 0 to 10 scale
Procedure, shortened: as §1

soybean [3] = assay: as above; type: in vivo, Glycine max; conditions: 0 to 10 scale
Procedure, shortened: as §1

sugar beet = assay: as above; type: in vivo, Beta vulgaris; conditions: 0 to 10 scale
Procedure, shortened: as §1

velvetleaf = assay: as above; type: in vivo, Abutilon theophrasti; conditions: 0 to 10 scale
Procedure, shortened: as §1

wild buckwheat = assay: as above; type: in vivo, Polygonum convolvulus; conditions: 0 to 10 scale
Procedure, shortened: as §1

barley [4] = assay: Test C preemergence/postemergence greenhouse plant response rating 0 to 100; type: in vivo, Hordeum vulgare; conditions: for Plant response rating Barley Igri: 125 g/ha, 0 to 100 scale
Procedure, shortened: (§2)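 Compounds in non-phytotoxic solvent went onto sandy loam before emergence (seeded one day earlier) or onto plants at the one-to-four leaf stage. Duck salad was treated via flood water (~2.5 cm, maintained) over silt loam.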

blackgrass = assay: as above; type: in vivo, Alopecurus myosuroides; conditions: for Plant response rating, Blackgrass: 125 g/ha, 0 to 100 scale
Procedure, shortened: as §2

chickweed [5] = assay: as above; type: in vivo, Stellaria media; conditions: PREEMERGENCE
Procedure, shortened: as §2

pigweed = assay: as above; type: in vivo, Amaranthusretroflexus; conditions: for Plant response rating Pigweed: 125 g/ha, 0 to 100 scale
Procedure, shortened: as §2

rape = assay: as above; type: in vivo, Brassica napus; conditions: for Plant response rating, Rape: 125 g/ha, 0 to 100 scale
Procedure, shortened: as §2

ryegrass = assay: as above; type: in vivo, Lolium multiflorum; conditions: for Plant response rating Ryegrass: 125 g/ha, 0 to 100 scale
Procedure, shortened: as §2

soybean [6] = assay: as above; type: in vivo, Glycine max; conditions: for Plant response rating, Soybean: 125 g/ha, 0 to 100 scale
Procedure, shortened: as §2

umbrella sedge = assay: Test C flood test plant response rating 0 to 100; type: in vivo, Cyperus difformis
Procedure, shortened: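 Compounds in non-phytotoxic solvent applied preemergence to sandy loam one day after planting, postemergence at the 1–4 leaf stage, or to ~2.5 cm floodwater over silt loam.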

Fc1cc(Cl)ccc1-c1nn2c(c1Br)CCCC2 [Compound 52]
Plant response rating, Barley (barley [1]; POSTEMERGENCE, Rate 50 g/ha): 5 | Plant response rating, Barley (barley [1]; POSTEMERGENCE, Rate 200 g/ha): 7 | Plant response rating, Barley (barley [1]; PREEMERGENCE, Rate 50 g/ha): 2 | Plant response rating, Barley (barley [1]; Rate 200 g/ha, PREEMERGENCE): 3 | Plant response rating, Bedstraw (bedstraw; POSTEMERGENCE, Rate 50 g/ha): 10 | Plant response rating, Bedstraw (bedstraw; POSTEMERGENCE, Rate 200 g/ha): 10 | Plant response rating, Bedstraw (bedstraw; PREEMERGENCE, Rate 50 g/ha): 5 | Plant response rating, Bedstraw (bedstraw; Rate 200 g/ha, PREEMERGENCE): 7 | Plant response rating, Chickweed (chickweed [2]; POSTEMERGENCE, Rate 50 g/ha): 5 | Plant response rating, Chickweed (chickweed [2]; POSTEMERGENCE, Rate 200 g/ha): 7 | Plant response rating, Chickweed (chickweed [2]; PREEMERGENCE, Rate 50 g/ha): 9 | Plant response rating, Chickweed (chickweed [2]; Rate 200 g/ha, PREEMERGENCE): 9 | Plant response rating, Cocklebur (cocklebur; POSTEMERGENCE, Rate 50 g/ha): 6 | Plant response rating, Cocklebur (cocklebur; POSTEMERGENCE, Rate 200 g/ha): 8 | Plant response rating, Cocklebur (cocklebur; PREEMERGENCE, Rate 50 g/ha): 0 | Plant response rating, Cocklebur (cocklebur; Rate 200 g/ha, PREEMERGENCE): 0 | Plant response rating, Morningglory (morningglory; POSTEMERGENCE, Rate 50 g/ha): 9 | Plant response rating, Morningglory (morningglory; PREEMERGENCE, Rate 50 g/ha): 0 | Plant response rating, Morningglory (morningglory; Rate 200 g/ha, POSTEMERGENCE): 9 | Plant response rating, Morningglory (morningglory; Rate 200 g/ha, PREEMERGENCE): 2 | Plant response rating, Sorghum (sorghum; POSTEMERGENCE, Rate 50 g/ha): 4 | Plant response rating, Sorghum (sorghum; PREEMERGENCE, Rate 50 g/ha): 2 | Plant response rating, Sorghum (sorghum; Rate 200 g/ha, POSTEMERGENCE): 7 | Plant response rating, Sorghum (sorghum; Rate 200 g/ha, PREEMERGENCE): 3 | Plant response rating, Soybean (soybean [3]; POSTEMERGENCE, Rate 50 g/ha): 10 | Plant response rating, Soybean (soybean [3]; PREEMERGENCE, Rate 50 g/ha): 0 | Plant response rating, Soybean (soybean [3]; Rate 200 g/ha, POSTEMERGENCE): 8 | Plant response rating, Soybean (soybean [3]; Rate 200 g/ha, PREEMERGENCE): 0 | Plant response rating, Sugar beet (sugar beet; POSTEMERGENCE, Rate 50 g/ha): 10 | Plant response rating, Sugar beet (sugar beet; PREEMERGENCE, Rate 50 g/ha): 9 | Plant response rating, Sugar beet (sugar beet; Rate 200 g/ha, PREEMERGENCE): 10 | Plant response rating, Velvetleaf (velvetleaf; POSTEMERGENCE, Rate 50 g/ha): 9 | Plant response rating, Velvetleaf (velvetleaf; PREEMERGENCE, Rate 50 g/ha): 8 | Plant response rating, Velvetleaf (velvetleaf; Rate 200 g/ha, POSTEMERGENCE): 10 | Plant response rating, Velvetleaf (velvetleaf; Rate 200 g/ha, PREEMERGENCE): 10 | Plant response rating, Wild buckwheat (wild buckwheat; POSTEMERGENCE, Rate 50 g/ha): 10 | Plant response rating, Wild buckwheat (wild buckwheat; PREEMERGENCE, Rate 50 g/ha): 7 | Plant response rating, Wild buckwheat (wild buckwheat; Rate 200 g/ha, POSTEMERGENCE): 10 | Plant response rating, Wild buckwheat (wild buckwheat; Rate 200 g/ha, PREEMERGENCE): 10 | Plant response rating Barley Igri (barley [4]; POSTEMERGENCE): 50 | Plant response rating (0 to 100), Barley Igri (barley [4]; POSTEMERGENCE, Rate 2 g/ha): 10 | Plant response rating Barley Igri (barley [4]; PREEMERGENCE): 10 | Plant response rating (0 to 100), Barley Igri (barley [4]; PREEMERGENCE, Rate 2 g/ha): 0 | Plant response rating (0 to 100), Barley Igri (barley [4]; Rate 8 g/ha, POSTEMERGENCE): 20 | Plant response rating (0 to 100), Barley Igri (barley [4]; Rate 8 g/ha, PREEMERGENCE): 0 | Plant response rating (0 to 100), Barley Igri (barley [4]; Rate 31 g/ha, POSTEMERGENCE): 40 | Plant response rating (0 to 100), Barley Igri (barley [4]; Rate 31 g/ha, PREEMERGENCE): 0 | Plant response rating, Blackgrass (blackgrass; POSTEMERGENCE): 60 | Plant response rating (0 to 100), Blackgrass (blackgrass; POSTEMERGENCE, Rate 2 g/ha): 10 | Plant response rating, Blackgrass (blackgrass; PREEMERGENCE): 50 | Plant response rating (0 to 100), Blackgrass (blackgrass; PREEMERGENCE, Rate 2 g/ha): 0 | Plant response rating (0 to 100), Blackgrass (blackgrass; Rate 8 g/ha, POSTEMERGENCE): 20 | Plant response rating (0 to 100), Blackgrass (blackgrass; Rate 8 g/ha, PREEMERGENCE): 0 | Plant response rating (0 to 100), Blackgrass (blackgrass; Rate 31 g/ha, POSTEMERGENCE): 40 | Plant response rating (0 to 100), Blackgrass (blackgrass; Rate 31 g/ha, PREEMERGENCE): 0 | Plant response rating, Chickweed (chickweed [5]; 125 g/ha, 0 to 100 scale): 20 | Plant response rating (0 to 100), Chickweed (chickweed [5]; Rate 2 g/ha): 0 | Plant response rating (0 to 100), Chickweed (chickweed [5]; Rate 8 g/ha): 0 | Plant response rating (0 to 100), Chickweed (chickweed [5]; Rate 31 g/ha): 0 | Plant response rating Pigweed (pigweed; POSTEMERGENCE): 100 | Plant response rating (0 to 100), Pigweed (pigweed; POSTEMERGENCE, Rate 2 g/ha): 20 | Plant response rating Pigweed (pigweed; PREEMERGENCE): 100 | Plant response rating (0 to 100), Pigweed (pigweed; PREEMERGENCE, Rate 2 g/ha): 0 | Plant response rating (0 to 100), Pigweed (pigweed; Rate 8 g/ha, POSTEMERGENCE): 50 | Plant response rating (0 to 100), Pigweed (pigweed; Rate 8 g/ha, PREEMERGENCE): 50 | Plant response rating (0 to 100), Pigweed (pigweed; Rate 31 g/ha, POSTEMERGENCE): 50 | Plant response rating (0 to 100), Pigweed (pigweed; Rate 31 g/ha, PREEMERGENCE): 100 | Plant response rating, Rape (rape; POSTEMERGENCE): 100 | Plant response rating (0 to 100), Rape (rape; POSTEMERGENCE, Rate 2 g/ha): 10 | Plant response rating, Rape (rape; PREEMERGENCE): 60 | Plant response rating (0 to 100), Rape (rape; PREEMERGENCE, Rate 2 g/ha): 0 | Plant response rating (0 to 100), Rape (rape; Rate 8 g/ha, POSTEMERGENCE): 40 | Plant response rating (0 to 100), Rape (rape; Rate 8 g/ha, PREEMERGENCE): 0 | Plant response rating (0 to 100), Rape (rape; Rate 31 g/ha, POSTEMERGENCE): 70 | Plant response rating (0 to 100), Rape (rape; Rate 31 g/ha, PREEMERGENCE): 10 | Plant response rating Ryegrass (ryegrass; POSTEMERGENCE): 60 | Plant response rating (0 to 100), Ryegrass (ryegrass; POSTEMERGENCE, Rate 2 g/ha): 10 | Plant response rating Ryegrass (ryegrass; PREEMERGENCE): 50 | Plant response rating (0 to 100), Ryegrass (ryegrass; PREEMERGENCE, Rate 2 g/ha): 0 | Plant response rating (0 to 100), Ryegrass (ryegrass; Rate 8 g/ha, POSTEMERGENCE): 20 | Plant response rating (0 to 100), Ryegrass (ryegrass; Rate 8 g/ha, PREEMERGENCE): 0 | Plant response rating (0 to 100), Ryegrass (ryegrass; Rate 31 g/ha, POSTEMERGENCE): 40 | Plant response rating (0 to 100), Ryegrass (ryegrass; Rate 31 g/ha, PREEMERGENCE): 10 | Plant response rating, Soybean (soybean [6]; POSTEMERGENCE): 70 | Plant response rating (0 to 100), Soybean (soybean [6]; POSTEMERGENCE, Rate 2 g/ha): 10 | Plant response rating, Soybean (soybean [6]; PREEMERGENCE): 0 | Plant response rating (0 to 100), Soybean (soybean [6]; PREEMERGENCE, Rate 2 g/ha): 0 | Plant response rating (0 to 100), Soybean (soybean [6]; Rate 8 g/ha, POSTEMERGENCE): 30 | Plant response rating (0 to 100), Soybean (soybean [6]; Rate 8 g/ha, PREEMERGENCE): 0 | Plant response rating (0 to 100), Soybean (soybean [6]; Rate 31 g/ha, POSTEMERGENCE): 40 | Plant response rating (0 to 100), Soybean (soybean [6]; Rate 31 g/ha, PREEMERGENCE): 0 | Plant response rating (0 to 100), Umbrella sedge (umbrella sedge; POSTEMERGENCE section, flood test, Rate 2 g/ha): 10 | Plant response rating (0 to 100), Umbrella sedge (umbrella sedge; Rate 8 g/ha, under POSTEMERGENCE head (flood test species)): 20 | Plant response rating (0 to 100), Umbrella sedge (umbrella sedge; Rate 31 g/ha, under POSTEMERGENCE head (flood test species)): 25 | Plant response rating Umbrella sedge (umbrella sedge; flood test species listed under POSTEMERGENCE, 125 g/ha, 0 to 100 scale): 80
